Measurements taken from patent publication US8927717B1, “Thiochromeno[2,3-c]quinolin-12-one derivatives, preparation method and application thereof” (National Defense Medical Center, priority 2014, dated 2015).
Read-outs that look alike come from different tables or passages of the source.

Legend:
PC-3 cell line = test: MTT assay for cell cytotoxicity; format: cell-based, human; conditions: read-out: MTT assay (IC50 ± SD) PC-3
Method: (§1) All of synthesis compounds were evaluated cell cytotoxicity by using MTT colorimetric assay on PC-3 and DU-145 cell lines. DU-145 and PC-3 are human hormone-refractory (androgen-independent) prostatic cancer cell lines from American Type Culture Collection (HTB-81™, ATCC, Rockville, Md.)^125 and Bioresource Collection and Research Center (60122, BCRC, Taiwan)^126, respectively. Two of the “classical” cell lines were cultivated in RPMI-1640 medium supplemented with 5% fetal bovine serum (v/v), 100 U/mL penicillin, and […] streptomycin. Approximately 2×10^3 cells were seeded into each well of a 96-well plate and incubated in 5% CO2 at 37° C. for 24 h. To evaluate the in vitro cytotoxicity, all the synthetic compounds were dissolved in DMSO, prepared immediately before the experiments and diluted into the complete medium before being added to each well of a 96-well plate. Each compound was then added to the culture medium for designated various concentrations (0.15, 0.5, 1.5, 5, 15 μM). After 72 h, an amount of 100 μL of MTT (1 mg/mL) was added to each well, and the samples were incubated at 37° C. for 4 h. After removing the MTT solution, 100 μL of DMSO was added to each well and incubated at 37° C. for another 20 mins. The absorbency at 560 nm was measured by using an ELISA reader.
(§2) Results are expressed as mean values of at least three independent experiments. The IC50 values of testing compounds were described in Table 1.

DU-145 cell line = test: MTT assay for cell cytotoxicity; format: cell-based, human; conditions: read-out: MTT assay (IC50 ± SD) DU-145
Method: as §1, §2

O=c1c2cc(Cl)ccc2sc2c(NCCO)nc3ccccc3c12 [Compound N9, 10-Chloro-6-(2-ethanolamino)-12H-thiochromeno[2,3-c]quinolin-12-one]
IC50 (PC-3 cell line; PC-3 cells, 72 h, at least three independent experiments): 7.48 ± 3.35 µM | IC50 (DU-145 cell line; DU-145 cells, 72 h, at least three independent experiments): 11.6 ± 7.23 µM

CC(C)CC(C)Nc1nc2ccccc2c2c(=O)c3cc(Cl)ccc3sc12 (stereo not shown) [Compound N13, 10-Chloro-6-((4-methylpentan-2-yl)amino)-12H-thiochromeno[2,3-c]quinolin-12-one]
IC50 (PC-3 cell line; Homo sapiens, PC-3, 72 h): 10.4 ± 2.3 µM | IC50 (DU-145 cell line; Homo sapiens, DU-145, 72 h): 14.2 ± 1.18 µM
